Measurements: patent publication US20210315893A1 (Galapagos NV, priority 2017, published 2021)

Legend:
HFL-1 cells [1] = test: IL8 assay in the presence of Human Serum Albumin; settings: HFL1, read-out: HSA IL8 EC50
Experimental: To evaluate the influence of plasma protein binding of S1P as well as compound, the S1P induced IL-8 levelswereevaluatedin presence of Human Serum Albumin (HSA, equivalent to 40% human serum).
Human Fetal Lung cells (HFL-1) are seeded in 96 well plates in growth medium (F12K+10% heat inactivated FBS+1% Pen/strep). […] On day three, compounds are added (10 point serial dilution, 30 μM highest concentration, 1/3 dilution, 0.3% DMSO final) and plates are incubated for 1 h at 37° C., 5% CO2. Subsequently S1P at 5 μM final concentration is added and plates are incubated for 16 to 24 h at 37° C., 5% COafter which the supernatant was collected. IL-8 levels in the supernatant are determined with the IL-8 ELISA of R&D systems.

[2] = molecular target: T1, human GPCR sphingosine 1-phosphate receptor 1 (Homo sapiens, UniProt P21453); test: S1PR1 selectivity Ca2+ flux assay (antagonist readout); type: cell-based; settings: antagonist readout, CHO cells overexpressing human S1PR1 and Gq, S1P at EC80 (6 nM); read-out: S1P1 EC50 (nM), S1P1 antagonist EC50
T1 construct: host or cells: CHO
T1 sequence (P21453 whole entry): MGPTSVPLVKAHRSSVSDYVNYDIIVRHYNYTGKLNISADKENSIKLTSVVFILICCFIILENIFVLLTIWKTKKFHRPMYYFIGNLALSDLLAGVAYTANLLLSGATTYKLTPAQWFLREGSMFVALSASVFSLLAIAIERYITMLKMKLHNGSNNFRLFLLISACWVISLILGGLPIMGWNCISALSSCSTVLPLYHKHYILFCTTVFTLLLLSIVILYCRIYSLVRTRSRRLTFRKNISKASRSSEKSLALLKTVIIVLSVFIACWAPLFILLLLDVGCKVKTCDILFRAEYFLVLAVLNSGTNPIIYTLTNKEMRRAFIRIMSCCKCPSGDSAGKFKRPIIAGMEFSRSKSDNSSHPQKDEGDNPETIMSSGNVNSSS
Outline: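 Antagonist mode: S1P challenge follows 15 min compound preincubation at 37 °C. Cells are CHO stably expressing human S1PR1, serum-starved 1 h (0.1% FAF BSA), loaded with Fluo 8. Peak-over-baseline fluorescence ratio is normalized to positive/negative controls; IC50 from logistic curve fit.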

[3] = molecular target: T2, human GPCR sphingosine 1-phosphate receptor 5 (Homo sapiens, UniProt Q9H228); test: S1PR5 selectivity Ca2+ flux assay (antagonist readout); type: cell-based; settings: CHO cells overexpressing human S1PR5 and Gq, agonist at EC80 (20 nM), read-out: S1P5 EC50 (nM), S1P5 antagonist EC50
T2 construct: host or cells: CHO
T2 sequence (Q9H228 whole entry): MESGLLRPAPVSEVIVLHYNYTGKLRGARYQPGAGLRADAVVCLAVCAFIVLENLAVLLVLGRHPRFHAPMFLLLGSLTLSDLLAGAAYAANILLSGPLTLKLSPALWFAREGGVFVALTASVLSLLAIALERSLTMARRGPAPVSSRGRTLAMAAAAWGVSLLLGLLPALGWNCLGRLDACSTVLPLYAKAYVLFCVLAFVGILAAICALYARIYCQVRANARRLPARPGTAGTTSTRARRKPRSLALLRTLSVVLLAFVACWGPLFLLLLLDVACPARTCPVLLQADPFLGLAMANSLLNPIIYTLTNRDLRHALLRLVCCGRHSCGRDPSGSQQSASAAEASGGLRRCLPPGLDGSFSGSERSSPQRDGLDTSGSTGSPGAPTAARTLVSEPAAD
Outline: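 Antagonist readout: after 15 min compound preincubation at 37° C, human S1PR5/Gq CHO cells loaded with Fluo 8 dye received an EC80 challenge of S1PR5-specific agonist, and fluorescence was recorded for 3 min. Maximal-over-background ratios, normalized as % inhibition, gave IC50 by logistic fit.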

S1PR2 = molecular target: T3, S1PR2 (Homo sapiens, UniProt O95136); test: S1PR2 binding assay (competition with radioactively labeled S1P, SpA); settings: membranes from stable cell line over expressing S1PR2, SpA beads; read-out: S1P2 EC50 (nM), S1PR2 binding EC50
T3 construct: expressed in transfected cells
T3 sequence (O95136 whole entry): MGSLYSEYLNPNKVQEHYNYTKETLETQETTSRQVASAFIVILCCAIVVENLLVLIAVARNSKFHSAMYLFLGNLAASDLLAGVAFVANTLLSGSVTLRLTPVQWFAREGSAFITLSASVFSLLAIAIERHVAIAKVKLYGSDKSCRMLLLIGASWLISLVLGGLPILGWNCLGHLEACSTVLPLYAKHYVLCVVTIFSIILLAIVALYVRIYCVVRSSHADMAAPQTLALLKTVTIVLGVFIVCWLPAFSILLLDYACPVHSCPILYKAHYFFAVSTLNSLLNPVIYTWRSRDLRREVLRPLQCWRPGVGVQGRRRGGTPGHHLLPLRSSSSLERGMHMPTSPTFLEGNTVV
Outline: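 Scintillation proximity read-out after 2 h room-temperature incubation of compound, [3H]S1P and S1PR2-overexpressing cell membranes on WGA-coated beads. Buffer: 20 mM Tris pH 7.5, 100 mM NaCl, 10 mM MgCl2, 1 mM Na3VO4, 0.4% fatty-acid-free BSA; plates counted immediately after centrifugation.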

[4] = molecular target: T4, human GPCR sphingosine 1-phosphate receptor 2 (Homo sapiens, UniProt O95136); test: S1PR2 antagonist Ca2+ flux assay; type: cell-based; settings: antagonist mode, CHO-S1PR2 cells, S1P at EC80, Ca2+ fluorescence; read-out: S1P2 EC50 (nM), S1P2 antagonist EC50
T4 construct: host or cells: CHO
T4 sequence (O95136 whole entry): as above
Outline: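 Antagonist mode: 15 min after compound addition, S1P (EC80) stimulates Fluo8-loaded, 1 h-starved CHO-S1PR2 cells, Ca2+ read over 3 min; a prior 3-min read checks compound agonism. EC50 from peak/baseline fluorescence ratio, normalised versus vehicle and S1P EC50 (antagonist) or EC100 (agonist).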

HFL-1 cells [5] = test: IL-8 production assay (S1P induced IL-8); type: cell-based; settings: Homo sapiens, HFL1; S1P (1 μM) induced IL-8 in HFL-1 cells, starvation medium without HSA; read-out: IL8 EC50
Outline: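 HFL-1 fibroblasts in low-serum medium were pretreated 1 h with a 10-point 1/3 series of compound starting at 30 μM (0.3% DMSO).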

Structure (SMILES)	EC50 (HFL-1 cells [1])	EC50 [2]	EC50 [3]	EC50 (S1PR2)	EC50 [4]	EC50 (HFL-1 cells [5])
N#Cc1cc2[nH]c(Cc3nn(CC(=O)N4CCN(CC5CC5)CC4)c(=O)c4ccccc34)nc2cc1OCC(F)F [Compound 218, 2-[[3-[2-[4-(cyclopropylmethyl)piperazin-1-yl]-2-oxo-ethyl]-4-oxo-phthalazin-1-yl]methyl]-6-(2,2-difluoroethoxy)-3H-benzimidazole-5-carbonitrile]	15200 nM	≥ 19800 nM	19800 nM	526 nM	1410 nM	151 nM
CC1(C)CN(C(=O)Cn2nc(Cc3nc4cc(OCC(F)F)c(C#N)cc4[nH]3)c3ccccc3c2=O)CCO1 [Compound 227, 6-(2,2-difluoroethoxy)-2-[[3-[2-(2,2-dimethylmorpholin-4-yl)-2-oxo-ethyl]-4-oxo-phthalazin-1-yl]methyl]-3H-benzimidazole-5-carbonitrile]	84.2 nM	≥ 19800 nM	19800 nM	82.1 nM	14.5 nM	16.9 nM
CC1(C)CCN(C(=O)Cn2nc(Cc3nc4cc(OCC(F)F)c(C#N)cc4[nH]3)c3ccccc3c2=O)CC1 [Compound 234, 6-(2,2-difluoroethoxy)-2-[[3-[2-(4,4-dimethyl-1-piperidyl)-2-oxo-ethyl]-4-oxo-phthalazin-1-yl]methyl]-3H-benzimidazole-5-carbonitrile]	378 nM	≥ 19800 nM	19800 nM	270 nM	13 nM	34.2 nM
CS(=O)(=O)NC(=O)Cn1nc(Cc2nc3cc(OCC4CC4)c(Cl)cc3[nH]2)c2ccccc2c1=O [Compound 242, 2-[4-[[6-chloro-5-(cyclopropylmethoxy)-1H-benzimidazol-2-yl]methyl]-1-oxo-phthalazin-2-yl]-N-methylsulfonyl-acetamide]	111 nM	560 nM	19800 nM	299 nM	19.2 nM	77.3 nM
CS(=O)(=O)NC(=O)Cn1nc(Cn2cc3cc(OCC4CC4)c(Cl)cc3n2)c2ccccc2c1=O [Compound 243, 2-[4-[[6-chloro-5-(cyclopropylmethoxy)indazol-2-yl]methyl]-1-oxo-phthalazin-2-yl]-N-methylsulfonyl-acetamide]	2580 nM	≥ 19800 nM	19800 nM	400 nM	9 nM	764 nM
O=C(Cn1nc(Cn2cc3cc(OCC4CC4)c(Cl)cc3n2)c2ccccc2c1=O)NS(=O)(=O)C1CC1 [Compound 244, 2-[4-[[6-chloro-5-(cyclopropylmethoxy)indazol-2-yl]methyl]-1-oxo-phthalazin-2-yl]-N-cyclopropylsulfonyl-acetamide]	808 nM	≥ 19800 nM	19800 nM	136 nM	8.29 nM	21.3 nM
N#Cc1cc2[nH]c(Cc3nn(CC(=O)O)c(=O)c4ccccc34)nc2cc1OCC1CC1 [compound 7, 2-[4-[[6-cyano-5-(cyclopropyl-methoxy)-1H-benzimidazol-2-yl]methyl]-1-oxo-phthalazin-2-yl]acetic acid]	11.3 nM	≥ 19800 nM	19800 nM	50.3 nM	8.26 nM	3.67 nM
N#Cc1cc2nn(Cc3nn(CC(=O)O)c(=O)c4ccccc34)cc2cc1OCC(F)F [compound 8, 2-[4-[[6-cyano-5-(2,2-difluoro-ethoxy)indazol-2-yl]methyl]-1-oxo-phthalazin-2-yl]acetic acid]	9950 nM	≥ 19800 nM	19800 nM	2490 nM	10700 nM	610 nM
N#Cc1cc2[nH]c(Cn3nc(CC(=O)N4C[C@H](O)[C@@H](O)C4)c(=O)c4ccccc43)nc2cc1OCC1CC1 [compound 10, 6-(cyclopropyl-methoxy)-2-[[3-[2-[(3S,4S)-3,4-dihydroxy-pyrrolidin-1-yl]-2-oxo-ethyl]-4-oxo-cinnolin-1-yl]methyl]-3H-benzimidazole-5-carbonitrile]	3.17 nM	≥ 19800 nM	19800 nM	11.6 nM	4.55 nM	0.567 nM
O=C(Cn1nc(Cc2cc3cc(Cl)c(OCC(F)F)cc3[nH]2)c2ccccc2c1=O)N1CCOCC1 [compound 11, 4-[[5-chloro-6-(2,2-difluoro-ethoxy)-1H-indol-2-yl]-methyl]-2-(2-morpholino-2-oxo-ethyl)-phthalazin-1-one]	694 nM	≥ 19800 nM	19800 nM	324 nM	80 nM	59.6 nM
NC(=O)c1ccc2c(=O)n(CC(=O)N3CCOCC3)nc(Cc3nc4cc(OCC(F)F)c(Cl)cc4[nH]3)c2c1 [compound 12, 4-[[6-chloro-5-(2,2-difluoro-ethoxy)-1H-benzimidazol-2-yl]methyl]-2-(2-morpholino-2-oxo-ethyl)-1-oxo-phthalazine-6-carboxamide]	1100 nM	≥ 19800 nM	19800 nM	582 nM	276 nM	143 nM
N#Cc1cc2[nH]c(Cc3nn(CC(=O)N4CC[C@H](O)C4)c(=O)c4ccccc34)nc2cc1OCC(F)F [compound 13, 6-(2,2-difluoro-ethoxy)-2-[[3-[2-[(3S)-3-hydroxy-pyrrolidin-1-yl]-2-oxo-ethyl]-4-oxo-phthalazin-1-yl]methyl]-3H-benzimidazole-5-carbonitrile]	251 nM	≥ 19800 nM	19800 nM	221 nM	120 nM	105 nM
CC(C(=O)NS(C)(=O)=O)c1nn(Cc2cn3cc(OCC4CC4)c(Cl)cc3n2)c2ccccc2c1=O (stereo not drawn) [compound 15, 2-[1-[[7-chloro-6-(cyclopropyl-methoxy)imidazo-[1,2-a]pyridin-2-yl]methyl]-4-oxo-cinnolin-3-yl]-N-methylsulfonyl-propanamide]	343 nM	≥ 19800 nM	19800 nM	378 nM	5.57 nM	24.2 nM
N#Cc1ccc2c(=O)n(CC(=O)O)nc(Cc3nc4cc(Cl)c(OCC(F)F)cc4[nH]3)c2c1 [compound 23, 2-[4-[[5-chloro-6-(2,2-difluoro-ethoxy)-1H-benzimidazol-2-yl]methyl]-6-cyano-1-oxo-phthalazin-2-yl]acetic acid]	293 nM	≥ 19800 nM	19800 nM	306 nM	14.6 nM	58.1 nM
